Measured values taken from patent US8846949B2, “Pyrrolopyrazoles as N-type calcium channel blockers” (Janssen Pharmaceutica NV, priority 2012, dated 2014).

Biological target: T1, N-type calcium channel α1B (Cav2.2), β3 and α2δ subunits (Homo sapiens, UniProt Q00975)
T1 construct: expressed in transfected cells
Test: Functional assay, antagonism of N-type calcium channel (FDSS calcium mobilization response to KCl depolarization)
Type: cell-based
Details: for IC50: HEK stable cell line, 50 mM KCl depolarization, six-point concentration-response; for inhibition at 0.33 µM: 0.33 μM compound, FDSS, 50 mM KCl
Method: A stable cell line (HEK parent) co-expressing the α1B (Cav2.2), β3 and α2δ subunits of the N-type calcium channel subunits was used. These cells were routinely grown as monolayers in low glucose-containing Dulbecco's Modified Eagle Medium supplemented with 10% FBS, 2 mM L-glutamine, 100 I.U./mL penicillin, 100 μg/mL streptomycin, 400 μg/mL G418 and 200 μg/mL Zeocin (split ratio=1:5). Cells were maintained in 5% CO2 at 37° C. Compounds of Formula (I) were prepared as 10 mM stocks in DMSO from neat compound, if available. Otherwise, the 5 or 10 mM DMSO stock solutions provided in-house were used.
Calcium mobilization responses to KCl depolarization were evaluated by measuring the intensity of calcium-mediated fluorescent signal in the presence of BD Calcium Assay Dye (BD Biosciences, Franklin Lakes, N.J., U.S.A.), utilizing a Functional Drug Screening System (FDSS) by Hamamatsu Corporation (Bridgewater, N.J. U.S.A.).
Twenty-four hr prior to assay, cells were seeded in clear-base poly-D-lysine-coated 384-well plates (BD Biosciences) at a density of 5,000 cells per well in culture medium and grown overnight in 5% CO2 at 37° C. On the day of assay, growth media were removed, and cells were loaded with BD calcium assay dye (BD Biosciences) for 35 min at 37° C. under 5% CO2 and then for 25 min at room temp. Utilizing the FDSS, cells were exposed to representative compounds of Formula (I) at varying concentrations, and intracellular calcium was measured for 5 min prior to the addition of 50 mM KCl for an additional 3 min of measurement.
IC50 values for representative compounds of Formula (I) were determined from six-point concentration-response experiments and represent the concentration of said compound required to inhibit 50% of the maximal response. Maximal fluorescence intensity (FI) achieved upon addition of 50 mM KCl was exported from the FDSS software and further analyzed using GraphPad Prism 3.02 (Graph Pad Software Inc., San Diego, Calif., U.S.A.). Data were normalized to the maximum average counts from quadruplicate wells for each condition in the presence of 50 mM KCl and to the minimum average counts in the presence of buffer. Theoretical curves were generated using nonlinear regression curve-fitting analysis of either sigmoidal concentration-response or sigmoidal concentration-response (variable slope), and the IC50 values with the best-fit curve determined by GraphPad Prism were reported.

T1 sequence (Q00975 whole entry): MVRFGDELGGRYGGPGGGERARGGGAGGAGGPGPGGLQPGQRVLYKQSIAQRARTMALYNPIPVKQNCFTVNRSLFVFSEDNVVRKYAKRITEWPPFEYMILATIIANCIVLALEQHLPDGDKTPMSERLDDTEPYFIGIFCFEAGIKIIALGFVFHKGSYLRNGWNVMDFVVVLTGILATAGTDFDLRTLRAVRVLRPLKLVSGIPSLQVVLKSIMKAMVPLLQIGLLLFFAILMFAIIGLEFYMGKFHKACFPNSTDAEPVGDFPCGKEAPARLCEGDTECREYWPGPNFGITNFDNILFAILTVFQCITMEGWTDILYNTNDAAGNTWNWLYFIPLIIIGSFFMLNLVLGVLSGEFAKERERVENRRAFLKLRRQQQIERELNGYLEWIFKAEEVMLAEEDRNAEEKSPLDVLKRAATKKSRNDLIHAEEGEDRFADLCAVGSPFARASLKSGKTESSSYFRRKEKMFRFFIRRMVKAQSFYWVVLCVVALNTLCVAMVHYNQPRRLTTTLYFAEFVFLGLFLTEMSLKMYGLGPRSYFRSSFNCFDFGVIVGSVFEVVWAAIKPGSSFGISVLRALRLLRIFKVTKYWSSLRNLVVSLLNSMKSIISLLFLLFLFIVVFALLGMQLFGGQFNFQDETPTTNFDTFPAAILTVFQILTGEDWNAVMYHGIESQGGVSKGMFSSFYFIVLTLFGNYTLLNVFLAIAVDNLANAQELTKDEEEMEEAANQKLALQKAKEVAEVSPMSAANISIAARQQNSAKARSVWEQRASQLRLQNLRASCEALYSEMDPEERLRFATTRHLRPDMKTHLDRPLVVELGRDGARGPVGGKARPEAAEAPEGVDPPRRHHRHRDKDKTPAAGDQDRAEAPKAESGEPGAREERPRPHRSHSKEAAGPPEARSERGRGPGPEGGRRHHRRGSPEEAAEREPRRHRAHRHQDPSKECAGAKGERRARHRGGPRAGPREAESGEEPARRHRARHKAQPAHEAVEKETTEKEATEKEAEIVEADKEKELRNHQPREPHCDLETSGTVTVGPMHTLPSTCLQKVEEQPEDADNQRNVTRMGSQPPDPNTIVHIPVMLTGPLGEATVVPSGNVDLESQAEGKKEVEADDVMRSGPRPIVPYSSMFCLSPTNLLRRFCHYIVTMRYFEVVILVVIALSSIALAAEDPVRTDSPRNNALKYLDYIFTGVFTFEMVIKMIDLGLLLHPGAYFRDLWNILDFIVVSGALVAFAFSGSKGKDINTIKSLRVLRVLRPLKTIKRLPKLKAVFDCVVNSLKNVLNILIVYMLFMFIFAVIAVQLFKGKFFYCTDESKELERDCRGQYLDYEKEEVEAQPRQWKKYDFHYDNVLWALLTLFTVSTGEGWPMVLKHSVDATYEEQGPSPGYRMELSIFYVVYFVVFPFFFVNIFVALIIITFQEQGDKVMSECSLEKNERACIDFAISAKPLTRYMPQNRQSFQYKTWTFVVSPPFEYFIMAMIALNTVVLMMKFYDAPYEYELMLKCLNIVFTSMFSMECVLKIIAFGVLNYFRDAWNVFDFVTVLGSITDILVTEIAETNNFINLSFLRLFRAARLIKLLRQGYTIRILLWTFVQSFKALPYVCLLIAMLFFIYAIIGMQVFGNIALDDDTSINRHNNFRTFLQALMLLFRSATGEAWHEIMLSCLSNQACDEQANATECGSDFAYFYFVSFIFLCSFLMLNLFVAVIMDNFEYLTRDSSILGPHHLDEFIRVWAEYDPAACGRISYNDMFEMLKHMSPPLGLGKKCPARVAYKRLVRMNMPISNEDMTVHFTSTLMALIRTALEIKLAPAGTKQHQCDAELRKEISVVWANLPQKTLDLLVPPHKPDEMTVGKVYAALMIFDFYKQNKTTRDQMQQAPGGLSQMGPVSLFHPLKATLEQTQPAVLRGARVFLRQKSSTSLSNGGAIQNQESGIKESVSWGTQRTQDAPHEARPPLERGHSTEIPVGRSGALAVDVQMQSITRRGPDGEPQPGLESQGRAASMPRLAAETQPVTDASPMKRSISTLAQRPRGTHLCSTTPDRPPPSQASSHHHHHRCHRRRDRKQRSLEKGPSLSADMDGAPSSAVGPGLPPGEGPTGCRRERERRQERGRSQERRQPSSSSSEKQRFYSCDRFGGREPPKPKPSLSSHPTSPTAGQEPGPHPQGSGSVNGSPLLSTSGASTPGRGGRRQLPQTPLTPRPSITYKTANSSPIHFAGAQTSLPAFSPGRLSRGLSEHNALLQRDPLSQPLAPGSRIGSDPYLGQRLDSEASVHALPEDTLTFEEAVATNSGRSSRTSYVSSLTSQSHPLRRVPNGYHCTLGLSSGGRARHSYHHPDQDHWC
T1 sequence (P54284 whole entry partner): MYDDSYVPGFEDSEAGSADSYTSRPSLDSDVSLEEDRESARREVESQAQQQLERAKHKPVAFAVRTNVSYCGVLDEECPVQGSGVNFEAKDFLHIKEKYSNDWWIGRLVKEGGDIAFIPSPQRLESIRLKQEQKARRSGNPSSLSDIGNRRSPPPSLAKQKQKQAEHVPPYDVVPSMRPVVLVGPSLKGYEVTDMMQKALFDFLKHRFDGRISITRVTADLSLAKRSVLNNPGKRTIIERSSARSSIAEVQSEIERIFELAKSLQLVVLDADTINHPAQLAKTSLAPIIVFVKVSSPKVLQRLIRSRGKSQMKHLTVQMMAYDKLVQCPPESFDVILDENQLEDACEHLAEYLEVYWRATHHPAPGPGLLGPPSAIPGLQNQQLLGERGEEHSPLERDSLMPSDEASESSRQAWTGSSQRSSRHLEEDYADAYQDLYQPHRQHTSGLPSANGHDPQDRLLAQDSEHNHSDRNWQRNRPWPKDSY
T1 sequence (P54289 25-956 partner limits assumed): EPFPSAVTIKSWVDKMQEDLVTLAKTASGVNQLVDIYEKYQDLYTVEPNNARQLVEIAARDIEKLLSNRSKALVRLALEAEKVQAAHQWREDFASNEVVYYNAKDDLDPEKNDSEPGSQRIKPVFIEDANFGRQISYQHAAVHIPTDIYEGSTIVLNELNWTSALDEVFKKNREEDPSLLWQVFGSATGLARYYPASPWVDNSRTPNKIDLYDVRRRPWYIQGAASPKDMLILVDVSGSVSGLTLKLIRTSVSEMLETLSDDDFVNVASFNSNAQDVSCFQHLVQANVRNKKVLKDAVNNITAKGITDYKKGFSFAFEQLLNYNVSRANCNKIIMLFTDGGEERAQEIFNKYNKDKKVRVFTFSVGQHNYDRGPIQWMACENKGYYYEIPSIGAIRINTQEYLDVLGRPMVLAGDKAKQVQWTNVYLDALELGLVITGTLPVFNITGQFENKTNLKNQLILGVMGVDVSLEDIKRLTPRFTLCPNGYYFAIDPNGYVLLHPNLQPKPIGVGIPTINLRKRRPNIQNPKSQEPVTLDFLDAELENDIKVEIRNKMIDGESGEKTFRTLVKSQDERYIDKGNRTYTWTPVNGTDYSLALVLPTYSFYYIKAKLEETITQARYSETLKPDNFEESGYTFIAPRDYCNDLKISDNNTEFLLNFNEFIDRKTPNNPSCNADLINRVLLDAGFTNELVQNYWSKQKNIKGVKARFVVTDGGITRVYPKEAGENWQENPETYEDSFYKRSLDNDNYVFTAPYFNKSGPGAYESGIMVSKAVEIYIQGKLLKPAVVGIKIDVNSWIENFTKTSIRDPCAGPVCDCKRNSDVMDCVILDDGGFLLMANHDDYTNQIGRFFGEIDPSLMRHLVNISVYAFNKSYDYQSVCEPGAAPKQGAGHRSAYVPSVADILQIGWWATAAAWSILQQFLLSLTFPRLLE
T1 sequence (P54289 957-1103 partner limits assumed): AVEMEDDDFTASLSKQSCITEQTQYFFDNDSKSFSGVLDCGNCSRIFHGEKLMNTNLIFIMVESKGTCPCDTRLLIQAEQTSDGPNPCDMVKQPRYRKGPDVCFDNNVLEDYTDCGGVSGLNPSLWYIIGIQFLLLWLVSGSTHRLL

SMILES	IC50 [nM]	inhibition at 0.33 µM [%]
COc1ccccc1-n1nc2c(c1-c1ccc(Cl)cc1)CN(S(=O)(=O)CCN1C(=O)CCC1=O)C2 [Cpd 42, 1-(2-{[3-(4-Chlorophenyl)-2-(2-methoxyphenyl)-2,6-dihydropyrrolo[3,4-c]pyrazol-5(4H)-yl]sulfonyl}ethyl)pyrrolidine-2,5-dione]	48	
COc1ccccc1-n1nc2c(c1-c1ccc(Cl)cc1)CN(S(=O)(=O)CCOc1ccccc1)C2 [Cpd 43, 3-(4-Chlorophenyl)-2-(2-methoxyphenyl)-5-[(2-phenoxyethyl)sulfonyl]-2,4,5,6-tetrahydropyrrolo[3,4-c]pyrazole]	100	
O=S1(=O)CCC(S(=O)(=O)N2Cc3nn(-c4ccccc4OC(F)(F)F)c(-c4ccc(Cl)cc4)c3C2)C1 (stereo not drawn) [Cpd 48, 3-(4-Chlorophenyl)-5-[(1,1-dioxidotetrahydrothiophen-3-yl)sulfonyl]-2-[2-(trifluoromethoxy)phenyl]-2,4,5,6-tetrahydropyrrolo[3,4-c]pyrazole]	77	
CCOc1ccccc1-n1nc2c(c1-c1ccc(Cl)cc1)CN(S(=O)(=O)Cc1ccccc1)C2 [Cpd 53, 5-(Benzylsulfonyl)-3-(4-chlorophenyl)-2-(2-ethoxyphenyl)-2,4,5,6-tetrahydropyrrolo[3,4-c]pyrazole]	7	
CC(C)Oc1ccccc1-n1nc2c(c1-c1ccc(Cl)cc1)CN(S(=O)(=O)N(C)C)C2 [Cpd 63, 3-(4-Chlorophenyl)-N,N-dimethyl-2-[2-(1-methylethoxy)phenyl]-2,6-dihydropyrrolo[3,4-c]pyrazole-5(4H)-sulfonamide]	3	
COc1ccc(-n2nc3c(c2-c2ccc(Cl)cc2)CN(S(C)(=O)=O)C3)c(C)c1 [Cpd 66, 3-(4-Chlorophenyl)-2-(4-methoxy-2-methylphenyl)-5-(methylsulfonyl)-2,4,5,6-tetrahydropyrrolo[3,4-c]pyrazole]		35
COc1ccc(-n2nc3c(c2-c2ccc(Cl)cc2)CN(S(=O)(=O)C(C)C)C3)c(C)c1 [Cpd 67, 3-(4-Chlorophenyl)-2-(4-methoxy-2-methylphenyl)-5-[(1-methylethyl)sulfonyl]-2,4,5,6-tetrahydropyrrolo[3,4-c]pyrazole]	190	61
COc1ccc(-n2nc3c(c2-c2ccc(Cl)cc2)CN(S(=O)(=O)C2CCCCC2)C3)c(C)c1 [Cpd 68, 3-(4-Chlorophenyl)-5-(cyclohexylsulfonyl)-2-(4-methoxy-2-methylphenyl)-2,4,5,6-tetrahydropyrrolo[3,4-c]pyrazole]	130	71
COc1ccc(-n2nc3c(c2-c2ccc(Cl)cc2)CN(S(=O)(=O)N(C)C)C3)c(C)c1 [Cpd 69, 3-(4-Chlorophenyl)-2-(4-methoxy-2-methylphenyl)-N,N-dimethyl-2,6-dihydropyrrolo[3,4-c]pyrazole-5(4H)-sulfonamide]	130	69
COc1cc(F)ccc1-n1nc2c(c1-c1ccc(Cl)cc1)CN(S(C)(=O)=O)C2 [Cpd 70, 3-(4-Chlorophenyl)-2-(4-fluoro-2-methoxyphenyl)-5-(methylsulfonyl)-2,4,5,6-tetrahydropyrrolo[3,4-c]pyrazole]	75	74
COc1cc(F)ccc1-n1nc2c(c1-c1ccc(Cl)cc1)CN(S(=O)(=O)C1CCCCC1)C2 [Cpd 72, 3-(4-Chlorophenyl)-5-(cyclohexylsulfonyl)-2-(4-fluoro-2-methoxyphenyl)-2,4,5,6-tetrahydropyrrolo[3,4-c]pyrazole]	95	82
COc1cc(C)ccc1-n1nc2c(c1-c1ccc(Cl)cc1)CN(S(C)(=O)=O)C2 [Cpd 74, 3-(4-Chlorophenyl)-2-(2-methoxy-4-methylphenyl)-5-(methylsulfonyl)-2,4,5,6-tetrahydropyrrolo[3,4-c]pyrazole]	47	82
COc1cc(C)ccc1-n1nc2c(c1-c1ccc(Cl)cc1)CN(S(=O)(=O)C(C)C)C2 [Cpd 75, 3-(4-Chlorophenyl)-2-(2-methoxy-4-methylphenyl)-5-[(1-methylethyl)sulfonyl]-2,4,5,6-tetrahydropyrrolo[3,4-c]pyrazole]	32	93
COc1cc(C)ccc1-n1nc2c(c1-c1ccc(Cl)cc1)CN(S(=O)(=O)N1CCC(C)CC1)C2 [Cpd 77, 3-(4-Chlorophenyl)-2-(2-methoxy-4-methylphenyl)-5-[(4-methylpiperidin-1-yl)sulfonyl]-2,4,5,6-tetrahydropyrrolo[3,4-c]pyrazole]	56	82
COc1ccc(-n2nc3c(c2-c2ccc(Cl)cc2)CN(S(C)(=O)=O)C3)c(F)c1 [Cpd 78, 3-(4-Chlorophenyl)-2-(2-fluoro-4-methoxyphenyl)-5-(methylsulfonyl)-2,4,5,6-tetrahydropyrrolo[3,4-c]pyrazole]	200	62
COc1ccc(-n2nc3c(c2-c2ccc(Cl)cc2)CN(S(=O)(=O)C(C)C)C3)c(F)c1 [Cpd 79, 3-(4-Chlorophenyl)-2-(2-fluoro-4-methoxyphenyl)-5-[(1-methylethyl)sulfonyl]-2,4,5,6-tetrahydropyrrolo[3,4-c]pyrazole]	180	61
COc1ccc(-n2nc3c(c2-c2ccc(Cl)cc2)CN(S(=O)(=O)N2CCC(C)CC2)C3)c(F)c1 [Cpd 80, 3-(4-Chlorophenyl)-2-(2-fluoro-4-methoxyphenyl)-5-[(4-methylpiperidin-1-yl)sulfonyl]-2,4,5,6-tetrahydropyrrolo[3,4-c]pyrazole]	140	62
CN(C)S(=O)(=O)N1Cc2nn(-c3ccccc3OCC(F)(F)F)c(-c3ccc(Cl)cc3)c2C1 [Cpd 90, 3-(4-Chlorophenyl)-N,N-dimethyl-2-[2-(2,2,2-trifluoroethoxy)phenyl]-2,6-dihydropyrrolo[3,4-c]pyrazole-5(4H)-sulfonamide]	85	80
CN(C)S(=O)(=O)N1Cc2nn(-c3ccccc3OC(C)(C)C)c(-c3ccc(Cl)cc3)c2C1 [Cpd 91, 2-(2-tert-Butoxyphenyl)-3-(4-chlorophenyl)-N,N-dimethyl-2,6-dihydropyrrolo[3,4-c]pyrazole-5(4H)-sulfonamide]	63	87
COc1ccccc1-n1nc2c(c1-c1cnc3ccccc3c1)CN(S(=O)(=O)C(C)C)C2 [Cpd 93, 3-{2-(2-Methoxyphenyl)-5-[(1-methylethyl)sulfonyl]-2,4,5,6-tetrahydropyrrolo[3,4-c]pyrazol-3-yl}quinoline]	100	
COc1ccccc1-n1nc2c(c1-c1ccc(C)nc1)CN(S(=O)(=O)C(C)C)C2 [Cpd 94, 2-(2-Methoxyphenyl)-5-[(1-methylethyl)sulfonyl]-3-(6-methylpyridin-3-yl)-2,4,5,6-tetrahydropyrrolo[3,4-c]pyrazole]		46
COc1ccccc1-n1nc2c(c1-c1ccc(OC(C)C)nc1)CN(S(=O)(=O)C(C)C)C2 [Cpd 96, 2-(2-Methoxyphenyl)-3-[6-(1-methylethoxy)pyridin-3-yl]-5-[(1-methylethyl)sulfonyl]-2,4,5,6-tetrahydropyrrolo[3,4-c]pyrazole]	130	79
